Data taken from publication PMC10107299, “Neutralizing the Impact of the Virulence Factor LecA from Pseudomonas aeruginosa on Human Cells with New Glycomimetic Inhibitors” (Angewandte Chemie (International Ed. in English), 2023).
Where “and” joins values, the source holds several entries; their conditions need not be identical. Identical values can stand only once.

What was measured:
[1] = Plasma protein binding (rapid equilibrium device), murine plasma; type: in vitro ADME, mouse; details: CD-1, mouse, plasma, read-out: PPB Mouse (converted)
Experimental: mixer (Eppendorf). Acetonitrile and caffeine were dispensed using a Mantis Formulatrix. Then samples were centrifuged for 20 min at 2.270 x g at 4 °C and the supernatants were transferred to 96-well Greiner V-bottom plates. Peak areas of each compound and of the internal standard were analyzed using the MultiQuant 3.0 software (AB Sciex). Peak areas of the respective compound were normalized to the internal standard peak area and to the respective peak areas at time point 0 min: (C/D)/(A/B) with A: peak area of the compound at time point 0 min, B: peak area of the internal standard at time point 0 min, C: peak area of the compound at the respective time point, D: peak area of the internal standard at the respective time point. […]
Assessment of plasma protein binding
Plasma protein binding was assessed using the rapid equilibrium device (RED) system from ThermoFisher. Compounds were dissolved in DMSO. […]
high plasma protein binding. Compounds were diluted in murine plasma (from CD-1 mice, pooled) or in human plasma (human donors, both genders, pooled) to a final concentration of 1 µM. Dialysis buffer and plasma samples were added to the respective chambers according the manufacturer’s protocol. The RED plate was sealed with a tape and incubated at 37 °C for 2 hours at 800 rpm on an Eppendorf MixMate vortex-mixer. Then samples were withdrawn from the respective chambers. To 25 µL of each dialysis sample, 25 µL of plasma and to 25 µL of plasma sample, 25 µL of dialysis buffer was added. Then 150 µL ice-cold extraction solvent (ACN/H2O (90:10) containing 12.5 ng/mL caffeine as internal standard) was added. Samples were incubated for 30 min on ice. Then samples were centrifuged at 4 °C at 2270 x g for 10 min.
Supernatants were transferred to Greiner V-bottom 96-well plates and sealed with a tape. The […]
percentage of bound compound was calculated as follows:
(1) % free = (concentration buffer chamber / concentration plasma chamber) *100 […]
Samples were analyzed using an Agilent 1290 Infinity II HPLC system coupled to an AB Sciex QTrap 6500plus mass spectrometer. LC conditions were as follows: column: Agilent […]
Zorbax Eclipse Plus C18, 50x2.1 mm, 1.8 µm; temperature: 30 °C; injection volume: 5 µL per […]
sample; flow rate: 700 µL/min. Samples were run under acidic and buffered conditions.
Solvents for acidic conditions: A1: water + 0.1% formic acid; solvent B1: 95% acetonitrile/5% […]
H2O + 0.1% formic acid; solvents for buffered conditions: A2: 95% water + 5% acetonitrile + […]
5 mM ammonium acetate + 40 µL/L acetic acid; B2: 95% acetonitrile + 5% water + 5 mM […]
ammonium acetate + 40 µL/L acetic acid. The same gradient was applied for acidic and […]
buffered conditions: 99% A at 0 min, 99% A until 1 min, 99% - 0% A from 1 min to 4.0 min, […]
0% A until 5.0 min. Mass transitions for controls and compounds are depicted in the following […]

[2] = target: T1, LecA (Pseudomonas aeruginosa, UniProt Q05097); experiment: Isothermal titration microcalorimetry (ITC) with LecA; type: binding; details: for -TΔS (supplement) / ΔS: ITC average ± s.d.; for Relative potency r.p. (ITC): compared to respective monovalent compound in each series; for ΔG, individual titration / ΔH, individual titration: LecA 35-182 µM, ligand 100 µM-1.5 mM as headed
T1 construct: made in house
Text: Due to the high solubility of the propanamides in the pyridine series and the sulfonated ligand L2, we determined binding thermodynamics with LecA using isothermal titration microcalorimetry (ITC, Figure 3, Figures S5–S9). […] In both cases, the enthalpy of binding increased approximately twofold (I2: ΔH=−23.9±1.2 kcal mol^−1, L2: ΔH=−19.5±1.3 kcal mol^−1) compared to their monovalent analogues (G2: ΔH=−11.0±0.2 kcal mol^−1, K2: ΔH=−10.3±0.1 kcal mol^−1), while the binding entropy was increased approximately threefold (G2: −TΔS=3.8±0.2 kcal mol^−1 vs. I2: −TΔS=13.7±1.3 kcal mol^−1, K2: −TΔS=3.2±0.2 kcal mol^−1 vs. L2: −TΔS=9.4±1.3 kcal mol^−1).
Figure 3 Direct binding of selected ligands to LecA by ITC (N=3). Titration of LecA (50 μM) with divalent sulfonated ligand L2 (250 μM) is depicted. Relative potencies (r.p.) were calculated compared to respective monovalent compound in each series and […]. TEXT PRINTED IN THE PICTURE: G2: ΔG [kcal/mol]: -7.2 ± 0.1; ΔH [kcal/mol]: -11.0 ± 0.2; -TΔS [kcal/mol]: 3.8 ± 0.2; N: 1.07 ± 0.06; Kd [nM]: 5 270 ± 30; r.p.: 1 | I2: ΔG [kcal/mol]: -10.2 ± 0.2; ΔH [kcal/mol]: -23.9 ± 1.2; -TΔS [kcal/mol]: 13.7 ± 1.3; N: 0.43 ± 0.01; Kd [nM]: 35.1 ± 12.5; r.p.: 150 | J2: ΔG [kcal/mol]: -9.7 ± 0.2; ΔH [kcal/mol]: -13.5 ± 0.4; -TΔS [kcal/mol]: 3.8 ± 0.5; N: 0.61 ± 0.06; Kd [nM]: 79.5 ± 32.8; r.p.: 66 | K2: ΔG [kcal/mol]: -7.1 ± 0.1; ΔH [kcal/mol]: -10.3 ± 0.1; -TΔS [kcal/mol]: 3.2 ± 0.2; N: 1.08 ± 0.13; Kd [nM]: 6 230 ± 440; r.p.: 1 | L2: ΔG [kcal/mol]: -10.1 ± 0.1; ΔH [kcal/mol]: -19.5 ± 1.3; -TΔS [kcal/mol]: 9.4 ± 1.3; N: 0.52 ± 0.06; Kd [nM]: 39.9 ± 3.6; r.p.: 156 […]
Expression and purification of LecA as well as competitive binding by fluorescence polarization was performed as described by Joachim et al..[9] The assay was performed in TBS/Ca2+ buffer (20 mM Tris, 137 mM NaCl, 2.6 mM KCl at pH 7.4 supplemented with 1 mM […]
CaCl2) in presence of 25% DMSO. […]
Isothermal titration calorimetry was performed on an iTC200 (Malvern Panalytical) and the data were analyzed using Microcal Origin software (Malvern Panalytical). LecA (50 - 180 […]
K2 and L2 and TBS/Ca2+ buffer supplemented with 5% DMSO for I2 and J2. Steep titration slopes achieved with the divalent ligands were the result of high amount of protein present and the high binding affinity of the ligand (high ‘value of c’).[10] However, LecA protein […]
low heat released upon binding. […]

[3] = ITC average, 25 °C, TBS/Ca2+ buffer (5% DMSO for I2 and J2), N=3
[4] = Kd (ITC), ITC average, 25 °C, TBS/Ca2+ buffer
[5] = Kd, individual titration, single ITC titrations, three per ligand
[6] = single ITC titrations, three per ligand

T1 sequence (Q05097 whole entry): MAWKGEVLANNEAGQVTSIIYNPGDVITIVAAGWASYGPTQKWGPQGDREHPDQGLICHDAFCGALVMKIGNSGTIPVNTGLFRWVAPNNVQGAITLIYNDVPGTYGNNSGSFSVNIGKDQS

Structure (SMILES) | fraction unbound at 2 h, 1 µM [1] | -TΔS (supplement) ([2]; 25 °C) [kcal/mol] | ΔS ([2]; 25 °C) [cal/mol/K] | N (stoichiometry) ([2]; ITC average, 25 °C, N=3) | -TΔS [2, 3] [kcal/mol] | ΔG [2, 3] | ΔH [2, 3] [kcal/mol] | Kd [2, 4] [µM] | Kd [2, 5] | Relative potency r.p. (ITC) [2] | N, individual titration [2, 6] | ΔS, individual titration [2, 6] | ΔG, individual titration [2, 6] | ΔH, individual titration [2, 6] | Kd ([2]; Kd (ITC), ITC average, 25 °C, TBS/Ca2+ buffer (5% DMSO for I2 and J2), N=3) [µM]
O=C(/C=C/c1ccc(O[C@@H]2O[C@H](CO)[C@H](O)[C@H](O)[C@H]2O)cc1)Nc1ccc(OCCOc2ccc(NC(=O)/C=C/c3ccc(O[C@@H]4O[C@H](CO)[C@H](O)[C@H](O)[C@H]4O)cc3)cc2)cc1 [Compound D1] | 0.006 |  |  |  |  |  |  |  |  |  |  |  |  |  | 
COc1ccc(NC(=O)CCc2ccc(O[C@@H]3O[C@H](CO)[C@H](O)[C@H](O)[C@H]3O)cc2)cn1 [Compound G2] |  | 3.8 ± 0.2 | -12.8 ± 0.6 | 1.07 ± 0.06 | 3.8 ± 0.2 | -7.2 ± 0.01 kcal/mol and -7.2 ± 0.1 kcal/mol | -11.0 ± 0.2 | 5.27 ± 0.03 | 5.32 µM and 5.26 µM and 5.24 µM | 1 | 1.10 and 1.13 and 0.99 | -12.5 cal/mol/K and -13.7 cal/mol/K and -12.3 cal/mol/K | -7.2 kcal/mol | -10.9 kcal/mol (2×) and -11.3 kcal/mol | 
O=C(CCc1ccc(O[C@@H]2O[C@H](CO)[C@H](O)[C@H](O)[C@H]2O)cc1)Nc1ccc(OCCOc2ccc(NC(=O)CCc3ccc(O[C@@H]4O[C@H](CO)[C@H](O)[C@H](O)[C@H]4O)cc3)cn2)nc1 [Compound H2] | 0.03 |  |  |  |  |  |  |  |  |  |  |  |  |  | 
Cc1ccc(NC(=O)CCc2ccc(O[C@@H]3O[C@H](CO)[C@H](O)[C@H](O)[C@H]3O)cc2)cc1S(=O)(=O)O [Compound K2] |  | 3.2 ± 0.2 | -10.7 ± 0.6 | 1.08 ± 0.13 | 3.2 ± 0.2 | -7.1 ± 0.1 kcal/mol | -10.3 ± 0.1 | 6.23 ± 0.44 | 6.33 µM and 5.65 µM and 6.71 µM | 1 | 1.25 and 1.05 and 0.94 | -10.0 cal/mol/K and -11.3 cal/mol/K and -10.7 cal/mol/K | -7.1 kcal/mol (2×) and -7.2 kcal/mol | -10.3 kcal/mol and -10.1 kcal/mol and -10.4 kcal/mol | 
O=C(CCc1ccc(O[C@@H]2O[C@H](CO)[C@H](O)[C@H](O)[C@H]2O)cc1)Nc1ccc(CCc2ccc(NC(=O)CCc3ccc(O[C@@H]4O[C@H](CO)[C@H](O)[C@H](O)[C@H]4O)cc3)cc2S(=O)(=O)O)c(S(=O)(=O)O)c1 [Compound L2] | 0.86 | 9.4 ± 1.3 | -31.6 ± 4.4 | 0.52 ± 0.06 | 9.4 ± 1.3 | -10.1 ± 0.1 kcal/mol | -19.5 ± 1.3 |  | 0.0448 µM and 0.038 µM and 0.0368 µM | 156 | 0.56 and 0.55 and 0.44 | -27.5 cal/mol/K and -37.6 cal/mol/K and -29.6 cal/mol/K | -10.0 kcal/mol and -10.1 kcal/mol (2×) | -18.9 kcal/mol and -18.3 kcal/mol and -21.4 kcal/mol | 0.0399 ± 0.0036
